PubChem BioAssay (NCI)
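48-hour exposure; five concentrations; linearly interpolated endpoints. TGI: total growth inhibition.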

Tests used:
Assay in all cases: growth of human tumour cells (NCI), 48 h
A549 NSCLC = test system: A549 NSCLC
CAKI-1 renal = test system: CAKI-1 renal
EKVX NSCLC = test system: EKVX NSCLC
HCC-2998 colon = test system: HCC-2998 colon
HCT-15 colon = test system: HCT-15 colon
K-562 leukemia = test system: K-562 leukemia
KM12 colon = test system: KM12 colon
NCI-H522 lung = test system: NCI-H522 lung
RXF 393 renal = test system: RXF 393 renal
SF-539 CNS = test system: SF-539 CNS
SK-MEL-2 melanoma = test system: SK-MEL-2 melanoma
SK-MEL-5 melanoma = test system: SK-MEL-5 melanoma
SNB-19 CNS = test system: SNB-19 CNS
SNB-75 CNS = test system: SNB-75 CNS
SR leukemia = test system: SR leukemia
UACC-62 melanoma = test system: UACC-62 melanoma
HS 578T breast = test system: HS 578T breast
T-47D breast = test system: T-47D breast

CCC(=O)N/N=C(\C=C\c1cccc(O)c1)c1sc(Nc2ccc(C)cc2[N+](=O)[O-])nc1C
TGI (A549 NSCLC): > 100 µM
TGI (CAKI-1 renal): > 100 µM
TGI (EKVX NSCLC): > 100 µM
TGI (HCC-2998 colon): > 100 µM
TGI (HCT-15 colon): > 100 µM
TGI (K-562 leukemia): > 100 µM
TGI (KM12 colon): > 100 µM
TGI (NCI-H522 lung): > 100 µM
TGI (RXF 393 renal): > 100 µM
TGI (SF-539 CNS): > 100 µM
TGI (SK-MEL-2 melanoma): > 100 µM
TGI (SK-MEL-5 melanoma): > 100 µM
TGI (SNB-19 CNS): > 100 µM
TGI (SNB-75 CNS): > 100 µM
TGI (SR leukemia): > 100 µM
TGI (UACC-62 melanoma): > 100 µM

COc1cc(C(=O)Oc2c(C#N)sc3c2c(=O)n(-c2ccccc2)c(=S)n3-c2ccccc2)cc(OC)c1OC
TGI (A549 NSCLC): 95.3 µM
TGI (CAKI-1 renal): 84.3 µM
TGI (EKVX NSCLC): 42.2 µM
TGI (HCC-2998 colon): 45.2 µM
TGI (HCT-15 colon): 43 µM
TGI (HS 578T breast): 42.5 µM
TGI (K-562 leukemia): 82.2 µM
TGI (KM12 colon): 39.7 µM
TGI (NCI-H522 lung): 2.11 µM
TGI (RXF 393 renal): 47.9 µM
TGI (SF-539 CNS): 24.1 µM
TGI (SK-MEL-5 melanoma): 31.6 µM
TGI (SNB-19 CNS): 72 µM
TGI (SNB-75 CNS): 50.3 µM
TGI (SR leukemia): > 100 µM
TGI (T-47D breast): > 100 µM
TGI (UACC-62 melanoma): 54.7 µM

CC1(C)O[C@@H](CBr)C[C@H](C[C@H]2C[C@@H](O)C[C@@H](CCOCc3ccccc3)O2)O1
TGI (A549 NSCLC): 75.7 µM
TGI (CAKI-1 renal): 51.3 µM
TGI (EKVX NSCLC): 33 µM
TGI (HCC-2998 colon): 53.7 µM
TGI (HCT-15 colon): 57.1 µM
TGI (HS 578T breast): 47.7 µM
TGI (K-562 leukemia): > 100 µM
TGI (KM12 colon): 40.7 µM
TGI (NCI-H522 lung): 35.4 µM
TGI (SK-MEL-2 melanoma): 32 µM
TGI (SK-MEL-5 melanoma): > 100 µM
TGI (SNB-19 CNS): 61.8 µM
TGI (SNB-75 CNS): 36.9 µM
TGI (SR leukemia): > 100 µM
TGI (T-47D breast): 38.3 µM
TGI (UACC-62 melanoma): 34.4 µM

O=C1Oc2cc3c(c4cccc1c24)O[C@H](c1ccccc1)[C@@H](c1ccccc1)[C@@H]3c1ccc(Cl)cc1
TGI (CAKI-1 renal): > 100 µM
TGI (EKVX NSCLC): > 100 µM
TGI (HCC-2998 colon): > 100 µM
TGI (HCT-15 colon): > 100 µM
TGI (HS 578T breast): > 100 µM
TGI (K-562 leukemia): > 100 µM
TGI (KM12 colon): > 100 µM
TGI (NCI-H522 lung): > 100 µM
TGI (RXF 393 renal): 40.1 µM
TGI (SF-539 CNS): > 100 µM
TGI (SK-MEL-5 melanoma): > 100 µM
TGI (SNB-19 CNS): > 100 µM
TGI (SR leukemia): 87.2 µM
TGI (T-47D breast): > 100 µM
TGI (UACC-62 melanoma): > 100 µM

O=C1NC2(CCN(CCCC3(c4ccc(F)cc4)OCCO3)CC2)Oc2ccccc21
TGI (A549 NSCLC): > 100 µM
TGI (EKVX NSCLC): > 100 µM
TGI (HCC-2998 colon): > 100 µM
TGI (HCT-15 colon): > 100 µM
TGI (K-562 leukemia): > 100 µM
TGI (KM12 colon): > 100 µM
TGI (RXF 393 renal): > 100 µM
TGI (SF-539 CNS): > 100 µM
TGI (SK-MEL-5 melanoma): > 100 µM
TGI (SNB-19 CNS): > 100 µM
TGI (SNB-75 CNS): > 100 µM
TGI (SR leukemia): > 100 µM
TGI (T-47D breast): > 100 µM
TGI (UACC-62 melanoma): > 100 µM

Cc1cccc2c(=O)c3cccc([C@@H](C)C(=O)O)c3oc12
TGI (A549 NSCLC): > 100 µM
TGI (CAKI-1 renal): > 100 µM
TGI (EKVX NSCLC): > 100 µM
TGI (HCC-2998 colon): > 100 µM
TGI (HCT-15 colon): > 100 µM
TGI (HS 578T breast): > 100 µM
TGI (K-562 leukemia): > 100 µM
TGI (KM12 colon): > 100 µM
TGI (NCI-H522 lung): > 100 µM
TGI (SF-539 CNS): > 100 µM
TGI (SK-MEL-2 melanoma): > 100 µM
TGI (SK-MEL-5 melanoma): > 100 µM
TGI (SNB-19 CNS): > 100 µM
TGI (SR leukemia): > 100 µM
TGI (T-47D breast): > 100 µM

COP(=O)(OC)/C(=C\c1cn(C(c2ccccc2)(c2ccccc2)c2ccccc2)cn1)NC(C)=O
TGI (A549 NSCLC): > 100 µM
TGI (CAKI-1 renal): > 100 µM
TGI (EKVX NSCLC): > 100 µM
TGI (HCC-2998 colon): > 100 µM
TGI (HCT-15 colon): > 100 µM
TGI (HS 578T breast): > 100 µM
TGI (K-562 leukemia): > 100 µM
TGI (KM12 colon): > 100 µM
TGI (NCI-H522 lung): > 100 µM
TGI (RXF 393 renal): 83.6 µM
TGI (SF-539 CNS): > 100 µM
TGI (SNB-19 CNS): > 100 µM
TGI (SNB-75 CNS): > 100 µM
TGI (SR leukemia): > 100 µM
TGI (T-47D breast): > 100 µM
TGI (UACC-62 melanoma): > 100 µM

O=[N+]([O-])c1cccc(C2=NOC3C4CCC(C4)C23)c1 (stereo not drawn)
TGI (A549 NSCLC): > 100 µM
TGI (HCC-2998 colon): > 100 µM
TGI (HCT-15 colon): > 100 µM
TGI (KM12 colon): > 100 µM
TGI (NCI-H522 lung): > 100 µM
TGI (SF-539 CNS): > 100 µM
TGI (SK-MEL-2 melanoma): > 100 µM
TGI (SK-MEL-5 melanoma): > 100 µM
TGI (SNB-75 CNS): > 100 µM
TGI (SR leukemia): > 100 µM

C[N+](C)=c1nc(N2CCc3ccccc3C2)ss1
TGI (A549 NSCLC): > 100 µM
TGI (CAKI-1 renal): > 100 µM
TGI (HCC-2998 colon): > 100 µM
TGI (HCT-15 colon): > 100 µM
TGI (K-562 leukemia): > 100 µM
TGI (KM12 colon): > 100 µM
TGI (NCI-H522 lung): > 100 µM
TGI (RXF 393 renal): > 100 µM
TGI (SF-539 CNS): > 100 µM
TGI (SK-MEL-2 melanoma): > 100 µM
TGI (SK-MEL-5 melanoma): > 100 µM
TGI (SNB-19 CNS): > 100 µM
TGI (SNB-75 CNS): > 100 µM
TGI (SR leukemia): > 100 µM
TGI (UACC-62 melanoma): > 100 µM

C=CCN1CN(c2ccccc2)C2(CCN(CCCC3(c4ccc(F)cc4)OCCO3)CC2)C1=O
TGI (A549 NSCLC): 42.9 µM
TGI (CAKI-1 renal): 75.6 µM
TGI (EKVX NSCLC): 40.1 µM
TGI (HCC-2998 colon): 35.6 µM
TGI (HCT-15 colon): 25.7 µM
TGI (K-562 leukemia): 25.4 µM
TGI (KM12 colon): 29.8 µM
TGI (NCI-H522 lung): 36.7 µM
TGI (RXF 393 renal): 28.1 µM
TGI (SF-539 CNS): 23.1 µM
TGI (SK-MEL-5 melanoma): 29.8 µM
TGI (SNB-19 CNS): 39.9 µM
TGI (SNB-75 CNS): 32.8 µM
TGI (SR leukemia): 48.7 µM
TGI (T-47D breast): 40.3 µM
TGI (UACC-62 melanoma): 34.5 µM

OC(C/C=N/Nc1ccccc1)(C(F)(F)Cl)C(F)(F)Cl
TGI (A549 NSCLC): > 10 µM
TGI (CAKI-1 renal): > 10 µM
TGI (EKVX NSCLC): > 10 µM
TGI (HCC-2998 colon): > 10 µM
TGI (HCT-15 colon): > 10 µM
TGI (HS 578T breast): > 10 µM
TGI (K-562 leukemia): > 10 µM
TGI (KM12 colon): > 10 µM
TGI (NCI-H522 lung): > 10 µM
TGI (RXF 393 renal): > 10 µM
TGI (SF-539 CNS): > 10 µM
TGI (SK-MEL-2 melanoma): > 10 µM
TGI (SK-MEL-5 melanoma): > 10 µM
TGI (SNB-19 CNS): > 10 µM
TGI (SNB-75 CNS): > 10 µM
TGI (T-47D breast): > 10 µM
TGI (UACC-62 melanoma): > 10 µM

Cn1c2ccccc2c(=O)c2[nH]c3ccccc3c21
TGI (A549 NSCLC): > 100 µM
TGI (CAKI-1 renal): > 100 µM
TGI (EKVX NSCLC): > 100 µM
TGI (HCC-2998 colon): > 100 µM
TGI (HCT-15 colon): > 100 µM
TGI (K-562 leukemia): > 100 µM
TGI (KM12 colon): > 100 µM
TGI (NCI-H522 lung): > 100 µM
TGI (RXF 393 renal): > 100 µM
TGI (SF-539 CNS): > 100 µM
TGI (SK-MEL-2 melanoma): > 100 µM
TGI (SK-MEL-5 melanoma): > 100 µM
TGI (SNB-19 CNS): > 100 µM
TGI (SNB-75 CNS): 99.8 µM
TGI (T-47D breast): > 100 µM
TGI (UACC-62 melanoma): > 100 µM
